Legend:
[1] = molecular target: T1, nanobit-large-bit-ERK2 and nanobit-small-bit-PEA15 in WM793 cells (Homo sapiens, UniProt P28482); experiment: NanoBiT assay; assay type: cell-based; conditions: WM793 nanobit stable cell line, overnight incubation; read-out: NanoBiT qualified absolute AC50
T1 construct: expressed in transfected cells
Procedure: (§1) Cancer cell media was prepared by adding 500 mL of RPMI (ThermoFisher cat ##22400-089) and 10% Fetal Bovine Serum (Gibco) for WM793 cells (ATCC Cat #CRL-2806, RRID: CVCL 8787) and F12K (Thermo Fisher cat #21127-022, 500 mL; or 21127-030, 10×500 mL)+10% FBS for PC3 (ATCC CRL-1435) cells. The entire media with supplements was filter sterilized through a 0.4 μm bottle top filter system. Cancer cell lines were detached from traditional cell culture flasks by washing three times with 1×PBS and adding an appropriate amount of 0.25% TrypLE™ Express Enzyme (1×), no phenol red (ThermoFisher cat #12604013) to create a thin layer over the cells. Trypsin was neutralized with media containing serum and proceeded to count the cells.
A nanobit stable cell line was generated using WM793 cells with nanobit-large-bit-ERK2 and nanobit-small-bit-PEA15. […] In a biological safety cabinet, cells were seeded using a sterilized small stainless steel tipped cassette on a Multi-drop Combi. Between different cell lines, the tubing of the cassette was flushed with 1× sterile PBS for 10 s. Alternatively, cells can be seeded using a Multi-flow located within a Hepa filtered robotics room using either a sterilized small sapphire jewel tipped cassette and the peristatic pump, or the attached syringe pump, depending on volume of plates per cell line needed. The plates were placed in an incubator set at 37° C., with 5% CO2 and 95% relative humidity. A 10-point, 3-fold serial dilution of compounds was prepared in 100% DMSO on a liquid handling robot with a 10 mM top concentration. 90 nl/well was dispensed in three assay plates/1 compound source plate, with the highest concentration at 30 μM. After addition of compound was complete, the plates were placed into an incubator at 37° C., with 5% CO2 and 95% relative humidity for overnight. Luminescence was captured on a plate luminometer such as an Envision or View Lux to measure Day 0 time point both select cell lines. LUM plus, gain 3500, 0.1 s and focal height 12.5 [mm] on PheraStar reader. The raw data was extracted from the instrument and normalized all fields containing test compounds to the average of all wells containing DMSO alone as neutral control. From this value, the percent growth inhibition was calculated for each compound. Dose response curves and inhibitory IC50s were generated by graphing the normalized data values against the compound concentration using either a program such as GraphPad™ or Excel Fit.

[2] = test system: WM793 cells; experiment: Cell proliferation assay (CellTiter-Glo); assay type: cell-based; conditions: Homo sapiens, WM793, 72 h, 3 d, read-out: Cell proliferation qualified AC50
Procedure: as §1
After counting the cells, the concentration of the cell solution was adjusted to seed a total of 750 cells per well in 50 μL of complete media into 384-well tissue culture treated plates. In a biological safety cabinet, cells were seeded using a sterilized small stainless steel tipped cassette on a Multi-drop Combi. Between different cell lines, the tubing of the cassette was flushed with 1× sterile PBS for 10 seconds. Alternatively, cells can be seeded using a Multi-flow located within a Hepa filtered robotics room using either a sterilized small sapphire jewel tipped cassette and the peristatic pump, or the attached syringe pump, depending on volume of plates per cell line needed. The plates were placed in an incubator set at 37° C., with 5% CO2 and 95% relative humidity. A 10-point, 3-fold serial dilutions of compounds in 100% DMSO was prepared on a liquid handling robot with a 10 mM top concentration. 100 nL/well in three assay plates/1 compound was dispensed to source plate, with the highest concentration at 20 μM. After addition of compound was complete, plates were placed into an incubator at 37° C., with 5% CO2 and 95% relative humidity for 3 d. An adequate volume of CellTiter-Glo® (Promega #G7571) detection reagent was pre-warmed to RT or in a 37° C. H2O bath. 25 μL of the reagent was added to each well using either a Multi-drop Combi or MultiFlo and incubate at RT for at least 15 min. Luminesce was captured on a plate luminometer such as an Envision or View Lux to measure Day 0 time point both select cell lines. LUM plus, gain 3500, 0.1 s and focal height 12.5 mm on PheraStar reader. At Day 3, an adequate volume of CellTiter-Glo® detection reagent was pre-warmed at RT or in a 37° C. H2O bath. A total of 25 μL of the reagent was added to each well using either a Multi-drop Combi or MultiFlo and incubate at RT for at least 15 min. Luminesce was captured on a plate luminometer such as an Envision or View Lux to measure Day 3 time point both select cell lines. LUM plus, gain 3500, 0.1 s and focal height 12.5 mm on PheraStar reader. Raw data was extracted from the instrument and all fields containing test compounds were normalized to the average of all wells containing DMSO alone from Day 3 as neutral control and Day 0 starting numbers. From this value, percent growth inhibition of each compound was calculated. Dose response curves and growth inhibitory IC50s were generated by graphing the normalized data values against the compound concentration using a program such as GraphPad™ or Excel Fit.

[3] = molecular target: T2, ERK2[2-360(p-T185/p-Y187)]-Avi (Homo sapiens, UniProt P28482); experiment: Biochemical assay (HTRF competition assay); assay type: binding; conditions: HTRF competition with Example 15 probe, overnight at RT; read-out: Biochemical qualified AC50
T2 construct: 400 pM ERK2[2-360(p-T185/p-Y187)]-Avi was added to the plate
T2 sequence (P28482 2-360 limits assumed): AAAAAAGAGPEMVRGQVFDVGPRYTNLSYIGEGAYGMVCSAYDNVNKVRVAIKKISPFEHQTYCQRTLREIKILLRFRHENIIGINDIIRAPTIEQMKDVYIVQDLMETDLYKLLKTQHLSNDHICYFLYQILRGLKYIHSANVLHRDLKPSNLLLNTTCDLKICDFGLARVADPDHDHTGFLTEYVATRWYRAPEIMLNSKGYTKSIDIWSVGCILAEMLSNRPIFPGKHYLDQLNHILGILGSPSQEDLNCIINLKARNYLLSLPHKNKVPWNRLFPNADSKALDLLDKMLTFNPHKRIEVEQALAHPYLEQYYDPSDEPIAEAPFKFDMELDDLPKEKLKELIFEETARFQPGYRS
Procedure: The competition assays were performed at RT in a 384-well white polystyrene, flat bottom plate (Greiner #784075) using a final reaction volume of 15 μL and the following assay buffer conditions: 50 mM MOPS, pH 7.2, 10 mM MgCl2, 0.5 mM TCEP, 0.01% Triton-X-100. 75 nL of a 10 mM compound solution in DMSO or 100% DMSO (12 point titration, final concentration: 50 μM-300 pM; final DMSO: 0.5%) was added using an acoustic liquid handler (Echo, Beckman Coulter) to wells containing 7.5 μL of 1-(6-((R)-3-(1-(5-chloro-1-((tetrahydro-2H-pyran-4-yl)methyl)-1H-indole-3-carbonyl)-4-(4-fluorophenyl)piperidine-4-carboxamido)pyrrolidin-1-yl)-6-oxohexyl)-3,3-dimethyl-5-sulfo-2-((1E,3E)-5-((E)-1,3,3-trimethyl-5-sulfoindolin-2-ylidene)penta-1,3-dien-1-yl)-3H-indol-1-ium (Example 15); 7.5 μL 400 pM SA-Tb (Cisbio, 610SATLB) and 400 pM ERK2[2-360(p-T185/p-Y187)]-Avi was added to the plate and incubated overnight at RT. HTRF signal was measured using a microplate reader (PheraStar, BMG Labtech) with excitation and emission wavelengths of […], respectively. The inhibitor dose-response curves were analyzed from the HTRF ratio signal using normalized IC50 regression curve fitting with control-based normalization.

T1 sequence (P28482 whole entry): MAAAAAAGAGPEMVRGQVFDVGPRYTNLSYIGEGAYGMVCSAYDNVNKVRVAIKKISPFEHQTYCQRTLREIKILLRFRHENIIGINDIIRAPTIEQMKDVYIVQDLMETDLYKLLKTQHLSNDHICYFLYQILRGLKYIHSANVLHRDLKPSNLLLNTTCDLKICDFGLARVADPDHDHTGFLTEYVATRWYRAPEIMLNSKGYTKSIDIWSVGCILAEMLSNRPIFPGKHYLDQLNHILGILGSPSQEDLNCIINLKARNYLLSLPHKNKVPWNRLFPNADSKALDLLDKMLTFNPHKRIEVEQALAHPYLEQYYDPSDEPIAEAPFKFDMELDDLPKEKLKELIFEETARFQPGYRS

AC50 [1] [nM]	AC50 [3] [nM]	SMILES	AC50 [2] [nM]
28	< 0.28	CCOC1CCC(Cc2c(C)n(C(=O)N3CC[C@@](C(=O)N[C@H]4CC[C@H](C(=O)O)C[C@@H]4C)(c4ccc(F)cc4)C[C@@H]3C)c3cc(F)ccc23)OC1 (single isomer, unassigned) [Example 8a]	13
260	0.32	C[C@H]1C[C@@H](C(=O)O)CC[C@@H]1NC(=O)[C@@]1(c2ccc(F)cc2)CCN(C(=O)N2CCc3ccc(F)cc32)[C@@H](C)C1 [Example 4b]	220
88	0.35	C[C@H]1C[C@@H](C(=O)O)CC[C@@H]1NC(=O)C1(c2ccc(F)cc2)CCN(C(=O)n2c3c(c4ccc(F)cc42)[C@H](c2ccccc2)OCC3)CC1 (single isomer, unassigned) [Example 10a]	77
390	1.3	CO[C@H]1CC[C@H](Cc2c(C)n(C(=O)N3CCC(C(=O)N[C@H]4CC[C@H](C(=O)O)CC4)(c4ccc(F)cc4)CC3)c3cc(F)ccc23)CC1 [Example 1c]	940
140	< 0.28	COCCc1c(C[C@H]2CC[C@H](OC(C)C)CC2)c2cc(F)c(F)cc2n1C(=O)N1CCC(C(=O)N[C@H]2CC[C@H](C(=O)O)C[C@@H]2C)(c2ccc(F)cc2)CC1 [Example 1f]	52
210	< 0.28	COCCc1c(C[C@H]2CC[C@H](OC(C)C)CC2)c2ccc(Cl)cc2n1C(=O)N1CCC(C(=O)N[C@H]2CC[C@H](C(=O)O)C[C@@H]2C)(c2ccc(F)cc2)CC1 [Example 1g]	93

Further lines, the compound ahead of its results:

SMILES	AC50 [1] [nM]	AC50 [3] [nM]	AC50 [2] [nM]
CCO[C@H]1CC[C@H](Cc2c(C)n(C(=O)N3CC[C@@](C(=O)N[C@H]4CC[C@H](C(=O)O)C[C@@H]4C)(c4ccc(F)cc4)C[C@@H]3C)c3cc(F)ccc23)OC1 (mixture of isomers) [Example 8, (1S,3S,4S)-4-((2S,4S)-1-(3-((trans-5-ethoxytetrahydro-2H-pyran-2-yl)methyl)-6-fluoro-2-methyl-1H-indole-1-carbonyl)-4-(4-fluorophenyl)-2-methylpiperidine-4-carboxamido)-3-methylcyclohexane-1-carboxylic acid]	31	< 0.28	15
CCc1c(C[C@H]2CC[C@H](OC3CCOCC3)CC2)c2ccc(F)cc2n1C(=O)N1CCC(C(=O)N[C@H]2C[C@H](C(=O)O)C[C@@H]2C)(c2ccc(F)cc2)CC1 [Example 1d]	300	< 0.28	110
CC(C)O[C@H]1CC[C@H](Cn2c(C=O)c(C(=O)N3CCC(C(=O)N[C@H]4CC[C@H](C(=O)O)C[C@@H]4C)(c4ccc(F)cc4)CC3)c3cc(Cl)cnc32)CC1 [Example 11g]	270	0.36	610
C[C@H]1C[C@@H](C(=O)O)CC[C@@H]1NC(=O)C1(c2ccc(F)cc2)CCN(C(=O)n2c3c(c4ccc(F)cc42)[C@@H](c2ccccc2)OCC3)CC1 (single isomer, unassigned) [Example 10b]	12000	37	10000
COCCc1c(C[C@H]2CC[C@H](OC(C)C)CC2)c2ccc(F)cc2n1C(=O)N1CCC(C(=O)N[C@H]2CC[C@H](C(=O)O)C[C@@H]2C)(c2ccc(F)cc2)CC1 [Example 3, (1S,3S,4S)-4-(1-(6-fluoro-3-(((1r,4S)-4-isopropoxycyclohexyl)methyl)-2-(2-methoxyethyl)-1H-indole-1-carbonyl)-4-(4-fluorophenyl)piperidine-4-carboxamido)-3-methylcyclohexane-1-carboxylic acid]	46	0.5	60
CN1CC[C@@H](NC(=O)C2(c3ccc(F)cc3)CCN(C(=O)c3cn(CC4CCOCC4)c4ccc(Br)cc34)CC2)C1 [Example 11, (R)-1-(5-bromo-1-((tetrahydro-2H-pyran-4-yl)methyl)-1H-indole-3-carbonyl)-4-(4-fluorophenyl)-N-(1-methylpyrrolidin-3-yl)piperidine-4-carboxamide]	4900	18	2700

From patent US20250092036A1, “COMPOUNDS AND COMPOSITIONS FOR MODULATING THE ACTIVITY OF ERK” (Novartis AG, priority 2023, published 2025)
